“And” between values parts separate entries of the source, which are not always exact repeats. Identical values can stand only once. Toxic doses and inconclusive results are not listed.
Test system: BDF1 mice, L1210/MTX-resistant leukemia ip, survival T/C
Experiment: NCI In Vivo Anticancer Drug Screen. Data for tumor model L1210 Leukemia resistant to Methotrexate; NSC 740 (intraperitoneal) in B6D2F1 (BDF1) mice
Settings: endpoint: mean survival time, higher = longer survival
Procedure: The antitumor activity of compounds was measured in mice bearing transplantable tumors. Survival or tumor size were measured and the results are expressed as the measurement made in the treated group (T) divided by the measurement made in the vehicle treated control group (C). The tumor model used in this assay is L1210 Leukemia resistant to Methotrexate; NSC 740 (intraperitoneal) in B6D2F1 (BDF1) mice

[1] = dose: 10.0 mg/kg/injection, schedule: Q01DX Z (ip), vehicle: saline
[2] = dose: 40.0 mg/kg/injection, schedule: Q01DX Z (ip), vehicle: saline
[3] = dose: 80.0 mg/kg/injection, schedule: Q01DX Z (ip), vehicle: saline
[4] = dose: 12.5 mg/kg/injection, schedule: Q01DX010 (ip), vehicle: saline
[5] = dose: 25.0 mg/kg/injection, schedule: Q01DX010 (ip), vehicle: saline
[6] = dose: 1.5 mg/kg/injection, schedule: Q01DX010 (ip), vehicle: saline
[7] = dose: 3.0 mg/kg/injection, schedule: Q01DX010 (ip), vehicle: saline
[8] = dose: 6.0 mg/kg/injection, schedule: Q01DX010 (ip), vehicle: saline
[9] = dose: 12.0 mg/kg/injection, schedule: Q01DX010 (ip), vehicle: saline

Q: How did the T/C (dose: 1.25 mg/kg/injection, schedule: Q01DX Z (ip), vehicle: saline) turn out when N=[N+]=CC(=O)OCC(N)C(=O)O (stereo unspecified) was run?
A: 116 % of control and 121 % of control

Q: What about the T/C (dose: 2.5 mg/kg/injection, schedule: Q01DX Z (ip), vehicle: saline) of the same compound?
A: 112 % of control

Q: What about the T/C [1] of the same compound?
A: 117 % of control and 104 % of control

Q: What about the T/C [2] of the same compound?
A: 101 % of control

Q: What about the T/C [3] of the same compound?
A: 93 % of control

Q: C[C@]12CC[C@H](OC3OC(CO)C(O)C(O)C3O)C[C@H]1CC[C@@H]1[C@@H]2CC[C@]2(C)[C@@H](C3=CCOC3=O)CC[C@]12O (stereo partly specified) was tested. Which T/C (dose: 1.0 mg/kg/injection, schedule: Q01DX Z (ip), vehicle: saline) did it give?
A: 86 % of control

Q: O=NN(CCCl)C(=O)NCCCl was tested. Which T/C [4] did it give?
A: 113 % of control

Q: What about the T/C [5] of the same compound?
A: 87 % of control and 91 % of control

Q: What does the source list for N[C@@H](Cc1ccc(N(CCCl)CCCl)cc1)C(=O)O?
A: T/C (dose: 0.5 mg/kg/injection, schedule: Q01DX Z (ip), vehicle: carboxymethylcellulose (CMC)): 114 % of control; T/C (dose: 1.0 mg/kg/injection, schedule: Q01DX Z (ip), vehicle: carboxymethylcellulose (CMC)): 100 % of control; T/C (dose: 2.0 mg/kg/injection, schedule: Q01DX Z (ip), vehicle: carboxymethylcellulose (CMC)): 110 % of control; T/C (dose: 3.0 mg/kg/injection, schedule: Q01DX Z (ip), vehicle: carboxymethylcellulose (CMC)): 114 % of control; T/C (dose: 4.0 mg/kg/injection, schedule: Q01DX Z (ip), vehicle: carboxymethylcellulose (CMC)): 107 % of control; T/C (dose: 6.0 mg/kg/injection, schedule: Q01DX Z (ip), vehicle: carboxymethylcellulose (CMC)): 97 % of control; T/C (dose: 8.0 mg/kg/injection, schedule: Q01DX Z (ip), vehicle: carboxymethylcellulose (CMC)): 86 % of control

Q: Which results are given for O=C1C(NC(=O)C2CCCCC2)=C(N2CC2)C(=O)C(NC(=O)C2CCCCC2)=C1N1CC1?
A: T/C (dose: 11.0 mg/kg/injection, schedule: Q01DX010 (ip), vehicle: saline): 89 % of control; T/C (dose: 22.0 mg/kg/injection, schedule: Q01DX010 (ip), vehicle: saline): 101 % of control; T/C [5]: 112 % of control; T/C (dose: 44.0 mg/kg/injection, schedule: Q01DX010 (ip), vehicle: saline): 98 % of control; T/C (dose: 50.0 mg/kg/injection, schedule: Q01DX010 (ip), vehicle: saline): 108 % of control; T/C (dose: 88.0 mg/kg/injection, schedule: Q01DX010 (ip), vehicle: saline): 95 % of control; T/C (dose: 100.0 mg/kg/injection, schedule: Q01DX010 (ip), vehicle: saline): 109 % of control; T/C (dose: 200.0 mg/kg/injection, schedule: Q01DX010 (ip), vehicle: saline): 109 % of control

Q: With c1ccc(CNc2ncnc3[nH]ncc23)cc1 as the compound, how does the T/C (dose: 8.0 mg/kg/injection, schedule: Q01DX010 (ip), vehicle: saline) read?
A: 94 % of control and 103 % of control

Q: What about the T/C (dose: 16.0 mg/kg/injection, schedule: Q01DX010 (ip), vehicle: saline) of the same compound?
A: 96 % of control and 100 % of control

Q: What about the T/C (dose: 32.0 mg/kg/injection, schedule: Q01DX010 (ip), vehicle: saline) of the same compound?
A: 91 % of control

Q: Which results are given for OCC1OC(n2cnc3c(Cl)ncnc32)C(O)C1O (stereo unspecified)?
A: T/C (dose: 62.5 mg/kg/injection, schedule: Q01DX010 (ip), vehicle: saline): 87 % of control and 90 % of control; T/C (dose: 125.0 mg/kg/injection, schedule: Q01DX010 (ip), vehicle: saline): 95 % of control and 98 % of control; T/C (dose: 250.0 mg/kg/injection, schedule: Q01DX010 (ip), vehicle: saline): 95 % of control and 100 % of control; T/C (dose: 500.0 mg/kg/injection, schedule: Q01DX010 (ip), vehicle: saline): 98 % of control

Q: Which results are given for COS(C)(=O)=O?
A: T/C (dose: 5.0 mg/kg/injection, schedule: Q01DX Z (ip), vehicle: saline): 105 % of control; T/C [1]: 103 % of control; T/C (dose: 20.0 mg/kg/injection, schedule: Q01DX Z (ip), vehicle: saline): 103 % of control; T/C [2]: 97 % of control

Q: Which results are given for [I][Hg][CH2]C1COC([CH2][Hg][I])CO1 (stereo unspecified)?
A: T/C (dose: 0.8 mg/kg/injection, schedule: Q01DX Z (ip), vehicle: methylcellulose (MC)): 94 % of control; T/C (dose: 1.6 mg/kg/injection, schedule: Q01DX Z (ip), vehicle: methylcellulose (MC)): 94 % of control; T/C (dose: 6.25 mg/kg/injection, schedule: Q01DX010 (ip), vehicle: saline): 101 % of control; T/C [4]: 103 % of control

Q: Which results are given for O=c1cnn(C2OC(CO)C(O)C2O)c(=O)[nH]1 (stereo unspecified)?
A: T/C (dose: 125.0 mg/kg/injection, schedule: Q01DX Z (ip), vehicle: methylcellulose (MC)): 97 % of control; T/C (dose: 250.0 mg/kg/injection, schedule: Q01DX Z (ip), vehicle: methylcellulose (MC)): 95 % of control; T/C (dose: 500.0 mg/kg/injection, schedule: Q01DX Z (ip), vehicle: methylcellulose (MC)): 104 % of control

Q: Which results are given for N=C(N)c1ccc(Nc2ccc(C(=N)N)cc2)cc1?
A: T/C [6]: 101 % of control; T/C [7]: 97 % of control; T/C [8]: 102 % of control; T/C (dose: 7.5 mg/kg/injection, schedule: Q01DX Z (ip), vehicle: water): 98 % of control; T/C [9]: 91 % of control; T/C (dose: 12.5 mg/kg/injection, schedule: Q01DX Z (ip), vehicle: water): 86 % of control

Q: For CC[C@]1(O)C[C@H]2CN(CCc3c([nH]c4ccccc34)[C@@](C(=O)OC)(c3cc4c(cc3OC)N(C=O)[C@H]3[C@@](O)(C(=O)OC)[C@H](OC(C)=O)[C@]5(CC)C=CCN6CC[C@]43[C@@H]65)C2)C1, which T/C (dose: 0.03 mg/kg/injection, schedule: Q01DX010 (ip), vehicle: saline) is on record?
A: 94 % of control

Q: What about the T/C (dose: 0.06 mg/kg/injection, schedule: Q01DX010 (ip), vehicle: saline) of the same compound?
A: 106 % of control

Q: What about the T/C (dose: 0.12 mg/kg/injection, schedule: Q01DX010 (ip), vehicle: saline) of the same compound?
A: 95 % of control

Q: And the T/C (dose: 0.25 mg/kg/injection, schedule: Q01DX010 (ip), vehicle: saline)?
A: 89 % of control

Q: O=C(Nc1ccc(C2=NCCN2)cc1)c1ccc(C(=O)Nc2ccc(C3=NCCN3)cc2)c(Cl)c1 was tested. Which T/C (dose: 1.9 mg/kg/injection, schedule: Q01DX Z (ip), vehicle: other) did it give?
A: 88 % of control

Q: What about the T/C (dose: 2.0 mg/kg/injection, schedule: Q01DX010 (ip), vehicle: other) of the same compound?
A: 122 % of control

Q: And the T/C (dose: 3.8 mg/kg/injection, schedule: Q01DX Z (ip), vehicle: other)?
A: 94 % of control

Q: And the T/C (dose: 7.5 mg/kg/injection, schedule: Q01DX Z (ip), vehicle: other)?
A: 97 % of control

Q: What about the T/C (dose: 8.0 mg/kg/injection, schedule: Q01DX010 (ip), vehicle: other) of the same compound?
A: 170 % of control

Q: What about the T/C (dose: 8.5 mg/kg/injection, schedule: Q02DX010 (ip), vehicle: carboxymethylcellulose (CMC)) of the same compound?
A: 123 % of control

Q: And the T/C [1]?
A: 118 % of control and 110 % of control

Q: What about the T/C (dose: 15.0 mg/kg/injection, schedule: Q01DX Z (ip), vehicle: other) of the same compound?
A: 97 % of control

Q: What about the T/C (dose: 16.0 mg/kg/injection, schedule: Q01DX010 (ip), vehicle: other) of the same compound?
A: 177 % of control and 221 % of control

Q: And the T/C (dose: 20.0 mg/kg/injection, schedule: Q01DX Z (ip), vehicle: other)?
A: 124 % of control

Q: What about the T/C (dose: 30.0 mg/kg/injection, schedule: Q01DX Z (ip), vehicle: other) of the same compound?
A: 101 % of control

Q: And the T/C (dose: 30.0 mg/kg/injection, schedule: Q02DX010 (ip), vehicle: carboxymethylcellulose (CMC))?
A: 192 % of control

Q: And the T/C (dose: 32.0 mg/kg/injection, schedule: Q01DX010 (ip), vehicle: other)?
A: 250 % of control and 274 % of control

Q: And the T/C (dose: 40.0 mg/kg/injection, schedule: Q01DX Z (ip), vehicle: other)?
A: 95 % of control

Q: And the T/C (dose: 45.0 mg/kg/injection, schedule: Q02DX010 (ip), vehicle: carboxymethylcellulose (CMC))?
A: 190 % of control

Q: What about the T/C (dose: 80.0 mg/kg/injection, schedule: Q01DX Z (ip), vehicle: other) of the same compound?
A: 91 % of control

Q: What about the T/C [3] of the same compound?
A: 88 % of control

Q: Clc1ncnc2nc[nH]c12 was tested. Which T/C (dose: 7.5 mg/kg/injection, schedule: Q01DX010 (ip), vehicle: saline) did it give?
A: 90 % of control

Q: And the T/C (dose: 15.0 mg/kg/injection, schedule: Q01DX010 (ip), vehicle: saline)?
A: 90 % of control and 96 % of control

Q: What about the T/C (dose: 30.0 mg/kg/injection, schedule: Q01DX010 (ip), vehicle: saline) of the same compound?
A: 92 % of control and 100 % of control

Q: What about the T/C (dose: 60.0 mg/kg/injection, schedule: Q01DX010 (ip), vehicle: saline) of the same compound?
A: 96 % of control

Q: With Nc1ncnc2[nH]ncc12 as the compound, how does the T/C [6] read?
A: 91 % of control and 107 % of control

Q: And the T/C [7]?
A: 96 % of control and 102 % of control

Q: And the T/C [8]?
A: 99 % of control and 103 % of control

Q: And the T/C [9]?
A: 89 % of control

— PubChem BioAssay AID284 (DTP/NCI, 2004)
